PMC6651555, “Cathepsin L Inhibitors with Activity against the Liver Fluke Identified From a Focus Library of Quinoxaline 1,4-di-N-Oxide Derivatives” (Molecules, 2019)
Entries after “also recorded” stand apart in the source; their conditions may differ.

Legend:
FhCL3 = FhCL3 inhibition screening, IC50 and slow-binding (fluorogenic substrate Tos-GPR-AMC); format: biochemical, Fasciola hepatica; settings: 10 µM compound, 20 min preincubation, relative to enzyme alone; SD less than 10%
Description: (§1) Each compound was completely dissolved in dimethylsulfoxide (DMSO) to a concentration of 10 mM to prepare the stock solutions. To evaluate the inhibition of FhCL1 and FhCL3 by quinoxaline 1,4-di-N-oxide derivatives, nanomolar concentrations of each enzyme was incubated with compounds at 10 μM. Briefly, each enzyme and compound were preincubated 20 min in a 96-well plate in 0.1 M sodium phosphate buffer pH 6, 1 mM DTT, and 1 mM EDTA at room temperature. The reaction was initiated by adding 20 μM of substrate and enzyme activity was measured by the increase in aminomethyl coumarin (AMC) fluorescence as peptide substrates were hydrolyzed (Z-VLK-AMC for FhCL1 and Tos-GPR-AMC for FhCL3), at an excitation wavelength of 340 nm and emission wavelength of 440 nm using a spectrofluorometer (Varioskan Thermo, Waltham, MA, USA). Enzyme activity was expressed as RFU/s (relative fluorescence units of AMC released per second). Each compound was tested in triplicate. A control reaction without enzymes was performed to check for the occurrence of non-catalyzed reactions between substrates and inhibitors and a spectrum from 300 to 450 nm wavelength was done for each quinoxaline 1,4-di-N-oxide derivative to verify that none of them had optical activity in the measurement range. The percentage of enzyme inhibition was calculated as 100 − (vi/vo) × 100, where vi and vo correspond to the initial rate of AMC fluorescence increase (RFU/s) with and without inhibitor, respectively.
(§2) To calculate the IC50 values, compounds were incubated with each enzyme at seven different concentrations; 0.625, 1.25, 2.5, 5, 10, 20, and 40 μM. Then, the enzyme activity was measured in a 96-well plate as described before. We plotted initial rates (RFU/s) versus log10 of inhibitor concentrations and obtained the IC50 values by fitting the data to a sigmoid curve. We also carried out slow-binding assays to evaluate the time-dependence of the inhibition. Each compound was incubated at 10 μM with the enzyme for increasing lengths of time; 3 to 120 min and the percentage of inhibition at each time point was determined as described before. We calculated the inhibition percentage of the leader compounds at 10 μM for HsCL1. The enzyme was preincubated for 20 min with the compounds and the activity was measured in a 96-well plate in 400 mM sodium acetate, pH 5.5, with 4 mM EDTA, 8 mM DTT, and 20 μM of substrate Z-VLK-AMC. The percentage of enzyme inhibition was calculated as described for FhCL1 and FhCL3. We determined the IC50 value for C17 against HsCL by incubating the enzyme with four different concentrations of the compound 0, 10, 25, and 50 μM and measuring the activity as described before. We plotted initial rates (RFU/s) versus log10 of inhibitor concentration and obtained the IC50 value by fitting the data to a sigmoid curve.

FhCL1 = target: T1, FhCL1 (Fasciola hepatica, UniProt Q7JNQ9); experiment: FhCL1 inhibition screening, IC50 and slow-binding (fluorogenic substrate Z-VLK-AMC); format: biochemical; settings: read-out: %Inh FhCL1, 10 µM compound, 20 min preincubation, relative to enzyme alone; SD less than 10%
T1 construct: made in house; host or cells: Hansenula polymorpha (yeast)
T1 sequence (Q7JNQ9 entry or part of it): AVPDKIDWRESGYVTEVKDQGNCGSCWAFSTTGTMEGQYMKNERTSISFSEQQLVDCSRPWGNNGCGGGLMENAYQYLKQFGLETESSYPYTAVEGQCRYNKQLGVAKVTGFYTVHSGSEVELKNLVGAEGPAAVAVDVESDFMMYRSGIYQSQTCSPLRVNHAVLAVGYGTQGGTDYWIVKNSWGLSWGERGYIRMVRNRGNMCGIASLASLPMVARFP
Description: as §1, §2

F. hepatica NEJ = experiment: In vitro culture of NEJ and treatment with inhibitors (motility score); format: cell-based, Fasciola hepatica; settings: 50 μM compound, over 96 h
Description: F. hepatica metacercariae were acquired from Instituto Miguel C. Rubino (DILAVE, MGAP, Uruguay). NEJ were obtained by in vitro excystement as previously described with minor modifications. Briefly, metacercariae were incubated with 1% sodium hypochlorite for 5 min at room temperature to remove the outer cyst wall and then washed several times with PBS. Metacercariae activation was carried out in a medium prepared by mixing equal volumes of solution A (0.4% sodium taurocholate, 120 mM NaHCO3, 140 mM NaCl, pH 8.0) and solution B (50 mM HCl and 33 mM L-cysteine), and incubating at 39 °C until the NEJ begin to emerge (around 3–4 h). A 100 μm filter was used to retain the cyst wall. Collected NEJ were washed three times with RPMI-1640 supplemented with 200 U/mL Penicillin G sulfate, […] streptomycin sulfate, 500 ng/mL amphotericin B, 10 mM HEPES, counted and divided into groups of around 20 parasites that were transferred to 96 wells in tissue culture plates. Parasites were maintained at 37 °C, 5% CO2 in modified Basch’s medium. At day 1, each tested compound was added at a concentration of 50 μM in 0.5% DMSO. Also, 0.5% of DMSO was added to the control groups. Each condition was tested in duplicate. NEJ behavior was monitored under a light microscope (Olympus BX41, Hamburg, Germany), every day each well was recorded for a minute in order to assess parasite motility and registered using the following score: 3—normally active; 2—reduced activity (sporadic movement); 1—immotile (dead, adapted from). Control parasites were maintained in culture for seven days.

bovine spermatozoa = experiment: Cytotoxicity assay with bovine spermatozoa (CASA motility); format: cell-based; settings: 50 µM, 1 h at 37 °C, relative to control sperm incubated with vehicle
Description: (§3) Cytotoxicity studies on the HepG2 cell line. Cells: 1.5 × 10^4 cells per 96-well plate were cultured in 225 µL of DMEM medium, supplemented with L-glutamine (1%), penicillin/streptomycin (1%), and 10% (v/v) fetal bovine serum (FBS). The cultures were maintained at 37 °C and 5% CO2 for 48 h. Treatment: Compound solutions were prepared just before dosing. Stock solutions, […], were prepared in 100% DMSO (Aldrich, Saint Louis, MO, USA) and 25 µL of adequate dilution was added to each well 24 h after plating the cells. For each compound, a dose-response curve was done with five different compound concentrations: 6.25, 12.5, 25, 50, and 100 µM (treated cells, T). No effect on cell growth was observed by the presence of 0.5% DMSO in the culture media (control cells, C). Cells were incubated with the compounds for 24 h at 37 °C in 5% CO2 atmosphere, then the medium was discarded and the cells were washed with PBS. The cells were then fixed with 50 µL of TCA (50%) and 200 µL of culture medium (without FBS) for 1 h at 4 °C. Then the cells were washed with purified water and treated with Sulforhodamin B (0.4% wt/vol in 1% acetic acid) for 10 min at room temperature. The plates were then washed with 1% acetic acid and dried overnight. Finally, 100 µL of Tris buffer (pH = 10.0) was added and absorbance read at 540 nm. Data calculations: The assays were done in four replicates. At the end of the experiment, the cell survival percentage (SP) was calculated for each compound as (T/C) × 100. To determine the IC50, the SP of cells at each compound concentration was plotted and the data were fitted to a sigmoid curve. The standard error was not greater than 10% for any condition. For the cytotoxicity assay with bovine spermatozoa, semen samples were obtained from a healthy fertile Hereford bull and kept frozen in 0.5 mL straws (extended in Andromed, Minitube, Tiefenbach, Germany) under liquid nitrogen until use. The semen used belonged to a single freezing batch that was obtained during a regular collection schedule with an artificial vagina. Samples from three straws were thawed and a sperm pool was prepared in PBS at a concentration of 80 million spermatozoa per ml. Then, 50 μL of this pool was carefully mixed with 50 μL of each compound to be tested at a concentration of 50 µM or 1% DMSO in control experiments. Each compound was assayed in triplicate in 96-well plates and controls were assayed in triplicate. Plates were incubated at 37 °C for 1 h with moderate shaking. The motility analysis was carried out using a CASA (Computer Assisted Semen Analyzer) system Androvision (Minitube, Tiefenbach, Germany) with an Olympus BX 41 microscope (Olympus, Japan) equipped with a warm-stage at 37 °C. Each sample (10 μL) was placed onto a Makler Counting Chamber (depth 10 μm, Sefi-Medical Instruments, Haifa, Israel) and the following parameters were evaluated: percentage of total motile spermatozoa (motility >5 μm/s) and velocity curved line (VCL > 24 μm/s). At least 400 spermatozoa were analyzed from each sample from at least four microscope fields.

HepG2 cell line = experiment: Cytotoxicity on the HepG2 cell line (Sulforhodamin B); format: cell-based; settings: Homo sapiens, 24 h incubation with compound
Description: as §3

Cc1c[n+]([O-])c2ccccc2[n+]1[O-] [Compound C1]
%Inh FhCL3 (FhCL3): 8% | inhibition at 10 µM (FhCL1): 1%

O=Cc1c[n+]([O-])c2ccccc2[n+]1[O-] [Compound C2]
%Inh FhCL3 (FhCL3): 0% | inhibition at 10 µM (FhCL1): 21%

N#Cc1c(N)[n+]([O-])c2ccccc2[n+]1[O-] [Compound C3]
%Inh FhCL3 (FhCL3): 0% | inhibition at 10 µM (FhCL1): 30%

COC(=O)N/N=C/c1ccc2c(c1)[n+]([O-])c(C#N)c(N)[n+]2[O-] [Compound C4]
%Inh FhCL3 (FhCL3): 27% | inhibition at 10 µM (FhCL1): 0%

C=CCNC(=S)N/N=C/c1ccc2c(c1)[n+]([O-])c(C#N)c(N)[n+]2[O-] [Compound C5]
%Inh FhCL3 (FhCL3): 39% | inhibition at 10 µM (FhCL1): 20%

CCCCNC(=O)N/N=C/c1ccc2c(c1)[n+]([O-])c(C#N)c(N)[n+]2[O-] [Compound C6]
Effect on NEJ motility / fasciolicide activity in vitro (F. hepatica NEJ): did not have activity against the parasites | %Inh FhCL3 (FhCL3): 27% | inhibition at 10 µM (FhCL1): 59%

CCN(C/C=C/c1ccccc1)c1ccc2c(c1)[n+]([O-])c(C#N)c(N)[n+]2[O-] [Compound C8]
%Inh FhCL3 (FhCL3): 45% | inhibition at 10 µM (FhCL1): 24%

N#Cc1c(N)[n+]([O-])c2cc(Cl)c(Cl)cc2[n+]1[O-] [Compound C9]
%Inh FhCL3 (FhCL3): 0% | inhibition at 10 µM (FhCL1): 15%

COC(=O)N/N=C/c1ccc2c(c1)[n+]([O-])c(C)c(C)[n+]2[O-] [Compound C10]
%Inh FhCL3 (FhCL3): 3% | inhibition at 10 µM (FhCL1): 13%

Cc1c(C)[n+]([O-])c2cc(/C=N/NC(=O)NCCc3ccccc3)ccc2[n+]1[O-] [Compound C11]
Effect on NEJ motility / fasciolicide activity in vitro (F. hepatica NEJ): did not have activity against the parasites | %Inh FhCL3 (FhCL3): 32% | inhibition at 10 µM (FhCL1): 56%

C=CCN1C(=O)CS/C1=N/N=C/c1ccc2c(c1)[n+]([O-])c(C)c(C)[n+]2[O-] [Compound C12]
%Inh FhCL3 (FhCL3): 22% | inhibition at 10 µM (FhCL1): 0%

C=CCn1c(-c2ccc(Cl)cc2)csc1=NN=Cc1ccc2c(c1)[n+]([O-])c(C)c(C)[n+]2[O-] [Compound C13]
%Inh FhCL3 (FhCL3): 2% | inhibition at 10 µM (FhCL1): 34%

CCOC(=O)c1c(C)[n+]([O-])c2ccccc2[n+]1[O-] [Compound C14]
%Inh FhCL3 (FhCL3): 5% | inhibition at 10 µM (FhCL1): 28%

C=CCNC(=S)N/N=C/c1ccc2c(c1)[n+]([O-])c(C(=O)OCC)c(C)[n+]2[O-] [Compound C15]
Effect on NEJ motility / fasciolicide activity in vitro (F. hepatica NEJ): did not have activity against the parasites | %Inh FhCL3 (FhCL3): 58% | inhibition at 10 µM (FhCL1): 38%

Cc1c(Sc2ccccc2)[n+]([O-])c2cc(Cl)c(Cl)cc2[n+]1[O-] [Compound C16]
%Inh FhCL3 (FhCL3): 22% | inhibition at 10 µM (FhCL1): 35%

CCOC(=O)c1c(-c2ccccc2)[n+]([O-])c2cc(Cl)c(Cl)cc2[n+]1[O-] [Compound C19]
Effect on NEJ motility / fasciolicide activity in vitro (F. hepatica NEJ): progressive decrease of parasite motility starting between 24 and 96 h of culture; also recorded: strong fasciolicide activity in vitro | %Inh FhCL3 (FhCL3): 35% | inhibition at 10 µM (FhCL1): 54%

C=CCNC(=S)N/N=C/c1ccc2c(c1)[n+]([O-])c(C(=O)Nc1ccccc1)c(C)[n+]2[O-] [Compound C20]
%Inh FhCL3 (FhCL3): 0% | inhibition at 10 µM (FhCL1): 72%

CCN(C/C=C/c1ccccc1)c1ccc2c(c1)[n+]([O-])c(C(=O)Nc1ccccc1)c(C)[n+]2[O-] [Compound C21]
Effect on NEJ motility / fasciolicide activity in vitro (F. hepatica NEJ): progressive decrease of parasite motility starting between 24 and 96 h of culture | %Inh FhCL3 (FhCL3): 54% | inhibition at 10 µM (FhCL1): 47%

Cc1c(C(=O)Nc2ccccc2)[n+]([O-])c2cc(CN3CCN(C/C=C/c4ccccc4)CC3)ccc2[n+]1[O-] [Compound C22]
%Inh FhCL3 (FhCL3): 49% | inhibition at 10 µM (FhCL1): 23%

C=CCN1C(=O)CS/C1=N/N=C/c1ccc2c(c1)[n+]([O-])c(-c1ccccc1)c(C(=O)Nc1ccccc1)[n+]2[O-] [Compound C24]
Sperm Motility RTC (relative to control) (bovine spermatozoa): 82 ± 1 | Effect on NEJ motility / fasciolicide activity in vitro (F. hepatica NEJ): progressive decrease of parasite motility starting between 24 and 96 h of culture; also recorded: strong fasciolicide activity in vitro | IC50 (HepG2 cell line): 16 ± 0.1 µM | inhibition at 10 µM (FhCL1): ≥ 80%

Cc1c(C(=O)NCc2ccccc2)[n+]([O-])c2ccccc2[n+]1[O-] [Compound C25]
%Inh FhCL3 (FhCL3): 40% | inhibition at 10 µM (FhCL1): 47%

Cc1c(C(=O)c2ccccc2)[n+]([O-])c2cc(F)c(F)cc2[n+]1[O-] [Compound C26]
%Inh FhCL3 (FhCL3): 17% | inhibition at 10 µM (FhCL1): 41%

O=C(c1ccccc1)c1c(C(F)(F)F)[n+]([O-])c2ccccc2[n+]1[O-] [Compound C27]
%Inh FhCL3 (FhCL3): 22% | inhibition at 10 µM (FhCL1): 38%

O=C(c1ccccc1)c1c(C(F)(F)F)[n+]([O-])c2cc(F)c(F)cc2[n+]1[O-] [Compound C28]
%Inh FhCL3 (FhCL3): 38% | inhibition at 10 µM (FhCL1): 0%

CSc1nc2cc(Cl)c(Oc3cccc(Cl)c3Cl)cc2[nH]1 [TCBZ, triclabendazole, reference compound]
Sperm Motility RTC (relative to control) (bovine spermatozoa): 88 ± 1 | IC50 (HepG2 cell line): 32 ± 0.2 µM
